Test results reported in ChEMBL document CHEMBL1201862, “PubChem BioAssay data set” (2004).
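Briefly, cells in 96-well plates were exposed to five compound concentrations for 48 h, and endpoints were estimated by linear interpolation. GI50: concentration for 50% inhibition of growth.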 Active and inactive are the calls of the source. Cut-off read from the data, not from the text of the source: active = GI50 up to about 1.1 µM and inactive = higher.

Legend:
Test in all cases: growth of human tumour cells (NCI), 48 h
[1] = test system: UACC-257
[2] = test system: SNB-75
[3] = test system: PC-3
[4] = test system: SF-268
[5] = test system: LOX IMVI
[6] = test system: MDA-MB-435
[7] = test system: COLO 205
[8] = test system: SK-OV-3
[9] = test system: DU-145
[10] = test system: UO-31
[11] = test system: KM12
[12] = test system: SNB-19
[13] = test system: HCT-116
[14] = test system: SN12C
[15] = test system: HOP-62
[16] = test system: T47D
[17] = test system: SK-MEL-28
[18] = test system: HL-60
[19] = test system: UACC-62
[20] = test system: NCI-H226

SMILES	GI50 [1]	GI50 [2]	GI50 [3]	GI50 [4]	GI50 [5]	GI50 [6]	GI50 [7]	GI50 [8]	GI50 [9]	GI50 [10]	GI50 [11]	GI50 [12]	GI50 [13]	GI50 [14]	GI50 [15]	GI50 [16]	GI50 [17]	GI50 [18]	GI50 [19]	GI50 [20]
CC1C(c2ccccc2)OP(=O)(OC(C#N)c2ccccc2)N1C (stereo unspecified)	68.9 µM (inactive)	> 100 µM (inactive)	> 100 µM (inactive)	> 100 µM (inactive)	79.6 µM (inactive)	81.1 µM (inactive)	> 100 µM (inactive)	> 100 µM (inactive)	> 100 µM (inactive)	97.3 µM (inactive)	> 100 µM (inactive)	> 100 µM (inactive)	> 100 µM (inactive)	> 100 µM (inactive)	> 100 µM (inactive)	40.8 µM (inactive)	> 100 µM (inactive)	27.6 µM (inactive)	> 100 µM (inactive)	
CCN(CC)CCCNc1ccc([N+](=O)[O-])c2nc3ccccc3c(N)c12	4.88 µM (inactive)	1.19 µM (inactive)	0.804 µM (active)	1.23 µM (inactive)	0.482 µM (active)	1.06 µM (active)		1.51 µM (inactive)	1.05 µM (active)	1.57 µM (inactive)	0.392 µM (active)	0.929 µM (active)	0.544 µM (active)	0.74 µM (active)	5.56 µM (inactive)	0.867 µM (active)	3.98 µM (inactive)	0.514 µM (active)	2.75 µM (inactive)	2.67 µM (inactive)
C=CCN1CCN([C@H](c2ccc(C(=O)N(CC)CC)cc2)c2cccc(OC)c2)CC1			> 25 µM (inactive)	> 25 µM (inactive)		> 25 µM (inactive)	> 25 µM (inactive)	> 25 µM (inactive)	> 25 µM (inactive)	> 25 µM (inactive)	> 25 µM (inactive)	> 25 µM (inactive)	> 25 µM (inactive)	> 25 µM (inactive)	> 25 µM (inactive)	> 25 µM (inactive)	> 25 µM (inactive)	> 25 µM (inactive)	> 25 µM (inactive)	> 25 µM (inactive)
Cc1ccc(O)c(Cc2nc3ccccc3nc2-c2cccc(Cl)c2)c1	74.6 µM (inactive)		42 µM (inactive)	97.5 µM (inactive)	36.8 µM (inactive)	21.4 µM (inactive)	58.6 µM (inactive)	> 100 µM (inactive)	> 100 µM (inactive)	32.1 µM (inactive)	59.6 µM (inactive)	21 µM (inactive)	42.9 µM (inactive)	55.2 µM (inactive)	> 100 µM (inactive)	79.8 µM (inactive)		42 µM (inactive)	57.9 µM (inactive)	44.9 µM (inactive)
CC(=O)/N=C1/N(/C=C2\C(=O)Oc3ccccc3C2=O)C(=O)/C(=C/c2ccc(Cl)cc2Cl)N1C	> 100 µM (inactive)	18.7 µM (inactive)	> 100 µM (inactive)	28.8 µM (inactive)	62.2 µM (inactive)	34.2 µM (inactive)	> 100 µM (inactive)	> 100 µM (inactive)	> 100 µM (inactive)		66.8 µM (inactive)		81.1 µM (inactive)	> 100 µM (inactive)	48.3 µM (inactive)	> 100 µM (inactive)	73.8 µM (inactive)	36.6 µM (inactive)	26.2 µM (inactive)	> 100 µM (inactive)
CCOP(=O)(OCC)/C(F)=C/c1ccc(F)cc1	> 100 µM (inactive)	> 100 µM (inactive)	> 100 µM (inactive)	> 100 µM (inactive)	> 100 µM (inactive)	> 100 µM (inactive)	> 100 µM (inactive)	> 100 µM (inactive)	> 100 µM (inactive)	> 100 µM (inactive)	> 100 µM (inactive)	> 100 µM (inactive)	> 100 µM (inactive)	> 100 µM (inactive)	> 100 µM (inactive)	> 100 µM (inactive)	> 100 µM (inactive)	> 100 µM (inactive)	91.2 µM (inactive)	
COc1cccc(/C=N/NC(=O)CSCC(=O)N/N=C/c2cccc(OC)c2OC)c1OC	> 100 µM (inactive)	> 100 µM (inactive)	> 100 µM (inactive)	> 100 µM (inactive)		> 100 µM (inactive)	> 100 µM (inactive)	> 100 µM (inactive)	> 100 µM (inactive)	> 100 µM (inactive)	> 100 µM (inactive)	> 100 µM (inactive)	> 100 µM (inactive)	> 100 µM (inactive)	> 100 µM (inactive)	> 100 µM (inactive)	> 100 µM (inactive)	> 100 µM (inactive)	> 100 µM (inactive)	> 100 µM (inactive)
COc1ccc(/N=C(/C[S+]([O-])c2ccc(C)cc2)C(F)(F)F)cc1 (stereo unspecified)	> 100 µM (inactive)	> 100 µM (inactive)	26.5 µM (inactive)		> 100 µM (inactive)	> 100 µM (inactive)	> 100 µM (inactive)	> 100 µM (inactive)	> 100 µM (inactive)	9.57 µM (inactive)	27.9 µM (inactive)	71.8 µM (inactive)	> 100 µM (inactive)	> 100 µM (inactive)		> 100 µM (inactive)	> 100 µM (inactive)	19.1 µM (inactive)	10.6 µM (inactive)	> 100 µM (inactive)
COC(=O)C1=C(C)NC2(C)OC(C)(O)C(C(C)=O)C12C(C)=O (stereo unspecified)	> 100 µM (inactive)	71.8 µM (inactive)	13.9 µM (inactive)	28.1 µM (inactive)	89.5 µM (inactive)	> 100 µM (inactive)	46.8 µM (inactive)	28.5 µM (inactive)	> 100 µM (inactive)		> 100 µM (inactive)	> 100 µM (inactive)	> 100 µM (inactive)	47.6 µM (inactive)	> 100 µM (inactive)	> 100 µM (inactive)	38.5 µM (inactive)	> 100 µM (inactive)	> 100 µM (inactive)	16.5 µM (inactive)
CCN(CC)C1=Nc2ccccc2-n2c(C)cnc2C1	> 61.5 µM (inactive)	> 100 µM (inactive)	> 100 µM (inactive)	> 100 µM (inactive)	> 100 µM (inactive)	> 100 µM (inactive)	> 100 µM (inactive)	> 100 µM (inactive)	> 100 µM (inactive)	> 88.7 µM (inactive)	> 100 µM (inactive)	> 100 µM (inactive)	> 100 µM (inactive)	> 100 µM (inactive)		> 100 µM (inactive)	> 100 µM (inactive)	> 100 µM (inactive)	> 100 µM (inactive)	> 100 µM (inactive)
O=c1c2cccnc2n2n1Cc1ccccc1C2	> 100 µM (inactive)	> 100 µM (inactive)	> 100 µM (inactive)	> 100 µM (inactive)	> 100 µM (inactive)	> 100 µM (inactive)		> 100 µM (inactive)	> 100 µM (inactive)	> 100 µM (inactive)			> 100 µM (inactive)	> 100 µM (inactive)	> 100 µM (inactive)	> 100 µM (inactive)	> 100 µM (inactive)	> 100 µM (inactive)	> 100 µM (inactive)	> 100 µM (inactive)
O=C1c2ccc3c4ccc5c6c(ccc(c7ccc(c2c37)C(=O)N1CCN1CCCCC1)c64)C(=O)N(CCN1CCCCC1)C5=O	> 100 µM (inactive)		> 100 µM (inactive)	> 100 µM (inactive)	> 100 µM (inactive)	> 100 µM (inactive)	> 100 µM (inactive)	> 100 µM (inactive)	> 100 µM (inactive)	> 100 µM (inactive)	> 100 µM (inactive)	> 100 µM (inactive)	> 100 µM (inactive)	> 100 µM (inactive)	> 100 µM (inactive)	> 100 µM (inactive)	> 100 µM (inactive)	> 100 µM (inactive)	> 100 µM (inactive)	> 100 µM (inactive)
C/C(=N\NC(N)=S)c1cccs1.OB(O)c1ccccc1		> 100 µM (inactive)	> 100 µM (inactive)	> 100 µM (inactive)	> 100 µM (inactive)	> 100 µM (inactive)	> 100 µM (inactive)	> 100 µM (inactive)	> 100 µM (inactive)	66.7 µM (inactive)	> 100 µM (inactive)	> 100 µM (inactive)	> 100 µM (inactive)	> 100 µM (inactive)	> 100 µM (inactive)	75 µM (inactive)	> 100 µM (inactive)	> 100 µM (inactive)	> 100 µM (inactive)	> 100 µM (inactive)
CC(C)=CC(=O)O[C@@H]1CC(C)(C)CC2C3=CCC4[C@]56CC[C@](O)(OC5)C(C)(C)C6CC[C@@]4(C)C3(C)CC[C@]21C(=O)O (stereo partly specified)	> 100 µM (inactive)		33.2 µM (inactive)	74.1 µM (inactive)	17.1 µM (inactive)	> 100 µM (inactive)	22.8 µM (inactive)	> 100 µM (inactive)	56.4 µM (inactive)		33 µM (inactive)	54.3 µM (inactive)	38 µM (inactive)	53.2 µM (inactive)	64.3 µM (inactive)	> 100 µM (inactive)	> 100 µM (inactive)	44.2 µM (inactive)	> 100 µM (inactive)	34.2 µM (inactive)
O=C1CNC(=O)/C(=C/c2c[nH]c3ccccc23)N1	> 100 µM (inactive)		> 100 µM (inactive)	> 100 µM (inactive)	> 100 µM (inactive)	> 100 µM (inactive)		> 100 µM (inactive)	> 100 µM (inactive)	> 100 µM (inactive)	> 100 µM (inactive)	> 100 µM (inactive)	> 100 µM (inactive)	> 100 µM (inactive)	> 100 µM (inactive)	> 100 µM (inactive)	> 100 µM (inactive)	36.3 µM (inactive)	> 100 µM (inactive)	> 100 µM (inactive)
